Source: patent US20020137929A1, “1 - (3-heterocyclylphenyl) isothiourea, -isourea, -guanidine and -amidine herbicidal agents” (Intellectual Property Department, BASF Aktiengesellschaft, priority 1998, published 2002)

Experiments:
[1] = system: MOOVA (Monochoria); test: Postemergence weed control under flooded paddy conditions; format: in vivo, Monochoria vaginalis; conditions: postemergence weeds, rated 3 to 4 weeks after treatment
Summary of the method: (§1)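 Weeds 3 to 5 cm tall and rice seedlings at the 1.5 to 2.5 leaf stage were flooded, with water held 1.5 to 3 cm above the soil. Compounds in 50/50 v/v aqueous/acetone went into the flood water at about 0.0313 to 0.500 kg/ha. Visual 0-9 ratings versus control were made 3 to 4 weeks later.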

[2] = system: SAGPY (Arrowhead (Pygmaea)); test: as above; format: in vivo, Sagittaria pygmaea; conditions: postemergence weeds, rated 3 to 4 weeks after treatment
Summary of the method: as §1

[3] = system: AMBEL (Ragweed, Common); test: Preemergence herbicidal evaluation; format: in vivo, Ambrosia artemisifolia; conditions: rated 4-5 weeks after treatment
Summary of the method: (§2)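 In this greenhouse assay, monocot and dicot seeds are planted in soil and treated prior to emergence with an aqueous acetone spray (about 0.0156-0.500 kg/ha). Plants are assessed visually against control on a 0-9 scale after 4-5 weeks.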

[4] = system: ZEAMX (Corn, Field); test: Postemergence herbicidal evaluation; format: in vivo, Zea mays; conditions: postemergence
Summary of the method: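 Seedlings grown about two weeks were sprayed at 40 psi with compound dispersed in 50/50 acetone/water plus 0.5% TWEEN 20, at about 0.0156 to 0.500 kg/ha. Plants were kept in the greenhouse and scored 4–5 weeks later on a 0–9 visual scale against untreated controls.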

[5] = system: ABUTH (Velvetleaf); test: Preemergence herbicidal evaluation; format: in vivo, Abutilon theophrasti; conditions: rated 4-5 weeks after treatment
Summary of the method: as §2

[6] = system: GLXMAW (Soybean, Williams); test: Preemergence herbicidal evaluation; format: in vivo, Glycine max, (L.) Merr. cv Williams; conditions: rated 4-5 weeks after treatment
Summary of the method: as §2

| Compound | Herbicidal rating MOOVA ([1]; Rate 0.0313 kg/ha) | Herbicidal rating MOOVA ([1]; Rate 0.0625 kg/ha) | Herbicidal rating MOOVA ([1]; Rate 0.1250 kg/ha) | Herbicidal rating MOOVA ([1]; Rate 0.2500 kg/ha) | Herbicidal rating SAGPY ([2]; Rate 0.0313 kg/ha) | Herbicidal rating SAGPY ([2]; Rate 0.0625 kg/ha) | Herbicidal rating SAGPY ([2]; Rate 0.1250 kg/ha) | Herbicidal rating SAGPY ([2]; Rate 0.2500 kg/ha) | Preemergence herbicidal rating AMBEL ([3]; rate 0.0156 kg/ha) | Preemergence herbicidal rating AMBEL ([3]; rate 0.0313 kg/ha) | Preemergence herbicidal rating AMBEL ([3]; rate 0.0625 kg/ha) | Preemergence herbicidal rating AMBEL ([3]; rate 0.1250 kg/ha) | Preemergence herbicidal rating AMBEL ([3]; rate 0.2500 kg/ha) | ZEAMX herbicidal rating ([4]; rate 0.0158 kg/ha) | ZEAMX herbicidal rating ([4]; rate 0.0315 kg/ha) | ZEAMX herbicidal rating ([4]; rate 0.0630 kg/ha) | Preemergence herbicidal rating ABUTH ([5]; rate 0.0156 kg/ha) | Preemergence herbicidal rating ABUTH ([5]; rate 0.0313 kg/ha) | Preemergence herbicidal rating ABUTH ([5]; rate 0.0625 kg/ha) | Preemergence herbicidal rating ABUTH ([5]; rate 0.1250 kg/ha) | also measured |
| --- | --- | --- | --- | --- | --- | --- | --- | --- | --- | --- | --- | --- | --- | --- | --- | --- | --- | --- | --- | --- | --- |
| C=CCOC(=O)CC1SC(=Nc2cc(-n3c(=O)cc(C(F)(F)F)n(C)c3=O)c(F)cc2Cl)N(CC=C)C1=O (stereo not drawn) [Compound 65, Allyl 3-allyl-2-{(2-chloro-5-[3,6-dihydro-3-methyl-2,6-dioxo-4-(trifluoromethyl)-1(2H)-pyrimidinyl]-4-fluorophenyl}imino}-4-oxo-5-thiazolidineacetate] | 9.0 | 9.0 | 9.0 | 9.0 | 2.0 | 4.0 | 5.0 | 7.0 | 1.0 | 2.0 | 4.0 | 9.0 | 9.0 | 8.0 | 8.0 | 7.5 | 2.0 | 9.0 | 9.0 | 9.0 | Preemergence herbicidal rating ABUTH ([5]; rate 0.2500 kg/ha): 9.0; Preemergence herbicidal rating GLXMAW ([6]; rate 0.0156 kg/ha): 1.0; Preemergence herbicidal rating GLXMAW ([6]; rate 0.0313 kg/ha): 0.0; Preemergence herbicidal rating GLXMAW ([6]; rate 0.0625 kg/ha): 1.0; Preemergence herbicidal rating GLXMAW ([6]; rate 0.1250 kg/ha): 2.0; Preemergence herbicidal rating GLXMAW ([6]; rate 0.2500 kg/ha): 5.0 |
| C#CCOC(=O)CC1SC(=Nc2cc(-n3c(=O)cc(C(F)(F)F)n(C)c3=O)c(F)cc2Cl)N(CC=C)C1=O (stereo not drawn) [Compound 67, 2-Propynyl 3-allyl-2-{{2-chloro-5-[3,6-dihydro-3-methyl-2,6-dioxo-4-(trifluoromethyl)-1(2H)-pyrimidinyl]-4-fluorophenyl}imino}-4-oxo-5-thiazolidineacetate] | 9.0 | 9.0 | 9.0 | 9.0 | 0.0 | 4.0 | 4.0 | 6.0 | 0.0 | 0.0 | 3.0 | 7.0 | 7.0 | 7.5 | 8.0 | 8.0 | 1.0 | 9.0 | 9.0 | 7.0 | Preemergence herbicidal rating ABUTH ([5]; rate 0.2500 kg/ha): 9.0; Preemergence herbicidal rating GLXMAW ([6]; rate 0.0156 kg/ha): 0.0; Preemergence herbicidal rating GLXMAW ([6]; rate 0.0313 kg/ha): 1.0; Preemergence herbicidal rating GLXMAW ([6]; rate 0.0625 kg/ha): 2.0; Preemergence herbicidal rating GLXMAW ([6]; rate 0.1250 kg/ha): 2.0; Preemergence herbicidal rating GLXMAW ([6]; rate 0.2500 kg/ha): 2.0 |
| CCOC(=O)CN1C(=O)C(CC(=O)Nc2ccccc2)SC1=Nc1cc(-n2c(=O)cc(C(F)(F)F)n(C)c2=O)c(F)cc1Cl (stereo not drawn) [Compound 68, Ethyl 2-{{2-chloro-5-[3,6-dihydro-3-methyl-2,6-dioxo-4-(trifluoromethyl)-1(2H)-pyrimidinyl]-4-fluorophenyl}imino}-4-oxo-5-[(phenylcarbamoyl)-methyl]-3-thiazolidineacetate] | 3.0 | 9.0 | 9.0 | 9.0 | 0.0 | 0.0 | 0.0 | 3.0 | 0.0 | 0.0 | 0.0 | 1.0 | 7.0 | 5.0 | 5.0 | 5.5 | 0.0 | 1.0 | 1.0 | 5.0 | Preemergence herbicidal rating ABUTH ([5]; rate 0.2500 kg/ha): 9.0; Preemergence herbicidal rating GLXMAW ([6]; rate 0.0156 kg/ha): 0.0; Preemergence herbicidal rating GLXMAW ([6]; rate 0.0313 kg/ha): 0.0; Preemergence herbicidal rating GLXMAW ([6]; rate 0.0625 kg/ha): 0.0; Preemergence herbicidal rating GLXMAW ([6]; rate 0.1250 kg/ha): 1.0; Preemergence herbicidal rating GLXMAW ([6]; rate 0.2500 kg/ha): 1.0 |
